From US20160002273A1, “THIENO[3,2-D]PYRIMIDINE-6-CARBOXAMIDES AND ANALOGUES AS SIRTUIN MODULATORS” (GLAXOSMITHKLINE LLC, priority 2013, published 2016)
Read-outs that look alike come from different tables or passages of the source.

Columns and labels:
SIRT1 = target: T1, SIRT1 (Homo sapiens, UniProt Q96EB6); assay: SIRT1 deacetylation of Trp 5-mer peptide, OAADPr mass spec assay
T1 sequence (Q96EB6 1-747): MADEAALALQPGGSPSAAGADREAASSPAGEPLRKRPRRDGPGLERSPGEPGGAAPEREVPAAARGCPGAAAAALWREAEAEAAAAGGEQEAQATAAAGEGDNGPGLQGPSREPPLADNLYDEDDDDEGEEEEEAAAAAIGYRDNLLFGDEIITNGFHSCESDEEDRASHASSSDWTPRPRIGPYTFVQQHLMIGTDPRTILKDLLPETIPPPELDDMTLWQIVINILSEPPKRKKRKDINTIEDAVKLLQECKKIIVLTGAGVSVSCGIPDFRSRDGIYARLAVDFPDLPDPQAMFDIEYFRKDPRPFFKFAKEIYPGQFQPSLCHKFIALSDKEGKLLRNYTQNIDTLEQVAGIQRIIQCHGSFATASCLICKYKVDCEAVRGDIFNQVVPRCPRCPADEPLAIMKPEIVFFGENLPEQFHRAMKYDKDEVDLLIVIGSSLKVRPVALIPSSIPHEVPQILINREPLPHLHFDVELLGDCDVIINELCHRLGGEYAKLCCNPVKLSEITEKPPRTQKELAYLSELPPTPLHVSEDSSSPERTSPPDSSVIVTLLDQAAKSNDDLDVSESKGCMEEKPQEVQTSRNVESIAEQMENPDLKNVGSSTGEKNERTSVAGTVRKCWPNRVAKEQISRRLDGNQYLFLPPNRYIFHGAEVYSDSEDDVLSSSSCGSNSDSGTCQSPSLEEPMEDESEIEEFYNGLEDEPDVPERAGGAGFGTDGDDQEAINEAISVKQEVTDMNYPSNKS

SIRT3 = target: T2, SIRT3 (Homo sapiens, UniProt Q9NTG7); assay: SIRT3 deacetylation of Trp 5-mer peptide, OAADPr mass spec assay
T2 sequence (Q9NTG7 102-399): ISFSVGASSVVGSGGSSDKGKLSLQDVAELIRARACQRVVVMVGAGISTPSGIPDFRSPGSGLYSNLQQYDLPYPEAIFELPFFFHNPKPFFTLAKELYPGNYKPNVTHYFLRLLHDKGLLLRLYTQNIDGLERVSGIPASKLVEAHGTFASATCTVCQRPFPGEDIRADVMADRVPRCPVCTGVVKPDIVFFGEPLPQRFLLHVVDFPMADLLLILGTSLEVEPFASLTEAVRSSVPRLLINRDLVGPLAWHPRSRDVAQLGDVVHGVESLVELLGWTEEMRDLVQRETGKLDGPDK

SIRT2 = target: T3, SIRT2 (Homo sapiens, UniProt Q8IXJ6); assay: SIRT2 deacetylation of Trp 5-mer peptide, OAADPr mass spec assay; assay type: biochemical; design: His-SIRT2(1-389)
T3 sequence (Q8IXJ6 1-389): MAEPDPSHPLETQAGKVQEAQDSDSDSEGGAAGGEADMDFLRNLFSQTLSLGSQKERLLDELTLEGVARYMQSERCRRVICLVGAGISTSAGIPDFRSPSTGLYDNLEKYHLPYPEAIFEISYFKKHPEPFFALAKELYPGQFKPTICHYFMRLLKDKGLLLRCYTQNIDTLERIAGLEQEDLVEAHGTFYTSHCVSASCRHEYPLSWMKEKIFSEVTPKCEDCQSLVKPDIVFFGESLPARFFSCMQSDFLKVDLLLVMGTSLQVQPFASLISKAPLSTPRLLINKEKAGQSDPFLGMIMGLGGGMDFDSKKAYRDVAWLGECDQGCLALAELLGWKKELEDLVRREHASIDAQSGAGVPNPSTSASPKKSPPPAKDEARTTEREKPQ

[1] = Trp SIRT1_IC50, Trp 5-mer peptide, class symbols
[2] = Trp SIRT3_IC50, Trp 5-mer peptide, class symbols
[3] = Trp 5-mer peptide, class symbols, read-out: Trp SIRT2_IC50

Structure (SMILES)	IC50 (SIRT1; [1])	IC50 (SIRT3; [2])	IC50 (SIRT2; [3])	IC50 (SIRT1; IC50 (μM) SIRT1, Trp 5-mer peptide and NAD at KM, mean of at least three determinations)	SIRT1 inhibition, in words (SIRT1; at the concentrations tested)	IC50 (SIRT3; IC50 (μM) SIRT3, Trp 5-mer peptide and NAD at KM, mean of at least three determinations)	SIRT3 inhibition, in words (SIRT3; at the concentrations tested)	IC50 (SIRT2; Trp 5-mer peptide and NAD at KM, mean of at least three determinations, read-out: IC50 (μM) SIRT2)	SIRT2 inhibition, in words (SIRT2; at the concentrations tested)
NC(=O)c1cc2ncnc(N3CCC(CO)CC3)c2s1 [Compound 51]	1 to 10 µM	< 1 µM	< 1 µM	–	–	–	–	–	–
NC(=O)c1cc2ncnc(N3CCC(CCO)CC3)c2s1 [Compound 50]	< 1 µM	< 1 µM	< 1 µM	–	–	–	–	–	–
NC(=O)c1cc2ncnc(N3CCC(C(=O)N4CCCC4)CC3)c2s1 [Compound 182]	> 10 µM	1 to 10 µM	1 to 10 µM	–	–	–	–	–	–
Cc1nc(N2CCC(CCNC(=O)C(C)(C)C)CC2)c2sc(C(N)=O)cc2n1 [Compound 159]	< 1 µM	1 to 10 µM	< 1 µM	–	–	–	–	–	–
Cc1c(C(N)=O)sc2c(N3CCC(CCNC(=O)OC(C)(C)C)CC3)ncnc12 [Compound 116, tert-butyl (2-(1-(6-carbamoyl-7-methylthieno[3,2-d]pyrimidin-4-yl)piperidin-4-yl)ethyl)carbamate]	< 1 µM	< 1 µM	< 1 µM	–	–	–	–	–	–
NCCCC1CCN(c2ncnc3cc(C(N)=O)sc23)CC1 [Compound 77, 4-(4-(3-aminopropyl)piperidin-1-yl)thieno[3,2-d]pyrimidine-6-carboxamide 2,2,2-trifluoroacetate]	< 1 µM	< 1 µM	< 1 µM	–	–	–	–	–	–
CS(=O)(=O)NCCC1CCN(c2ncnc3cc(C(N)=O)oc23)CC1 [Compound 99]	< 1 µM	< 1 µM	< 1 µM	–	–	–	–	–	–
Cc1nc(N2CCN(CCNC(=O)C3CCCC3)CC2)c2sc(C(N)=O)cc2n1 [Compound 157]	1 to 10 µM	1 to 10 µM	< 1 µM	–	–	–	–	–	–
NC(=O)c1cc2ncnc(N3CCC(C4CCNCC4)CC3)c2s1 [Compound 56]	< 1 µM	< 1 µM	< 1 µM	–	–	–	–	–	–
NC(=O)c1cc2ncnc(N3CCC(O)(CN4CCCC4)CC3)c2s1 [Compound 58]	1 to 10 µM	1 to 10 µM	1 to 10 µM	–	–	–	–	–	–
NCCC1CCN(c2ncnc3ccsc23)CC1 [Compound 188, 2-(1-(thieno[3,2-d]pyrimidin-4-yl)piperidin-4-yl)ethanamine 2,2,2-trifluoroacetate]	> 10 µM	> 10 µM	1 to 10 µM	–	–	–	–	–	–
CC(C)(C)C(=O)NCCC1CCN(c2ncnc3ccsc23)CC1 [Compound 42, N-(2-(1-(thieno[3,2-d]pyrimidin-4-yl)piperidin-4-yl)ethyl)pivalamide]	> 10 µM	> 10 µM	> 10 µM	> 50 µM	no measurable	> 50 µM	no measurable	> 50 µM	no measurable
NC(=O)c1cc2ncnc(N3CCC4(CCNC4)CC3)c2s1 [Compound 185]	1 to 10 µM	< 1 µM	1 to 10 µM	–	–	–	–	–	–
COCCC1CCN(c2ncnc3cc(C(N)=O)oc23)CC1 [Compound 91]	1 to 10 µM	1 to 10 µM	1 to 10 µM	–	–	–	–	–	–
NC(=O)c1cc2ccnc(N3CCN(CCN4CCCC4)CC3)c2s1 [Compound 173]	1 to 10 µM	< 1 µM	1 to 10 µM	–	–	–	–	–	–
CS(=O)(=O)NCCN1CCN(c2ncnc3cc(C(N)=O)oc23)CC1 [Compound 89]	1 to 10 µM	< 1 µM	< 1 µM	–	–	–	–	–	–
CC(C)(C)OC(=O)NCCN1CCN(c2ncnc3cc(C(N)=O)oc23)CC1 [Compound 86]	< 1 µM	1 to 10 µM	< 1 µM	–	–	–	–	–	–
CCNC(=O)c1ccc(C(=O)NCCC2CCN(c3ncnc4ccsc34)CC2)s1 [Compound 193]	> 10 µM	> 10 µM	> 10 µM	–	–	–	–	–	–
CN(C)CC1CCN(c2ncnc3cc(C(N)=O)sc23)CC1 [Compound 43, 4-(4-((dimethylamino)methyl)piperidin-1-yl)thieno[3,2-d]pyrimidine-6-carboxamide]	1 to 10 µM	< 1 µM	< 1 µM	–	–	–	–	–	–

Structure (SMILES)	IC50 (SIRT1; [1])	IC50 (SIRT3; [2])	IC50 (SIRT2; [3])	IC50 (SIRT1; IC50 (μM) SIRT1, Trp 5-mer peptide and NAD at KM, mean of at least three determinations)	SIRT1 inhibition, in words (SIRT1; at the concentrations tested)	IC50 (SIRT3; IC50 (μM) SIRT3, Trp 5-mer peptide and NAD at KM, mean of at least three determinations)	SIRT3 inhibition, in words (SIRT3; at the concentrations tested)	IC50 (SIRT2; Trp 5-mer peptide and NAD at KM, mean of at least three determinations, read-out: IC50 (μM) SIRT2)	SIRT2 inhibition, in words (SIRT2; at the concentrations tested)
COC(=O)c1ccc(C(=O)NCCC2CCN(c3ncnc4cc(C(N)=O)sc34)CC2)s1 [Compound 67]	< 1 µM	< 1 µM	< 1 µM	–	–	–	–	–	–
NC(=O)c1cc2ncnc(N3CCC(CN4CCCC(C(F)(F)F)C4)CC3)c2s1 (stereo not drawn) [Compound 131, 4-(4-((3-(trifluoromethyl)piperidin-1-yl)methyl)piperidin-1-yl)thieno[3,2-d]pyrimidine-6-carboxamide]	< 1 µM	< 1 µM	< 1 µM	–	–	–	–	–	–
CN(C)CCC1CCN(c2ncnc3cc(C(N)=O)sc23)CC1 [Compound 46]	1 to 10 µM	< 1 µM	< 1 µM	–	–	–	–	–	–
Cc1nc(N2CCN(CCN3CCCC3)CC2)c2sc(C(N)=O)cc2n1 [Compound 150]	1 to 10 µM	< 1 µM	1 to 10 µM	–	–	–	–	–	–
COCCC1CCN(c2nc(C)nc3cc(C(N)=O)sc23)CC1 [Compound 148]	1 to 10 µM	1 to 10 µM	1 to 10 µM	–	–	–	–	–	–
CC(C)(C)OC(=O)NCCC1CCN(c2ccnc3cc(C(N)=O)sc23)CC1 [Compound 103, tert-butyl (2-(1-(2-carbamoylthieno[3,2-b]pyridin-7-yl)piperidin-4-yl)ethyl)carbamate]	< 1 µM	< 1 µM	< 1 µM	–	–	–	–	–	–
CNC(=O)CC1CCN(c2ncnc3cc(C(N)=O)sc23)CC1 [Compound 48]	1 to 10 µM	1 to 10 µM	1 to 10 µM	–	–	–	–	–	–
NC(=O)c1cc2ccnc(N3CCC(CCN4CCCC4)CC3)c2s1 [Compound 169]	1 to 10 µM	< 1 µM	1 to 10 µM	–	–	–	–	–	–
Cc1nc(N2CCC(CCO)CC2)c2sc(C(N)=O)cc2n1 [Compound 151]	1 to 10 µM	1 to 10 µM	1 to 10 µM	–	–	–	–	–	–
CC(C)(C)OC(=O)N1CCC2(CCN(c3ncnc4cc(C(N)=O)sc34)CC2)C1 [Compound 184]	1 to 10 µM	1 to 10 µM	< 1 µM	–	–	–	–	–	–
NC(=O)c1cc2ncnc(N3CCN(CCN4CCCC4)CC3)c2o1 [Compound 92]	1 to 10 µM	< 1 µM	< 1 µM	–	–	–	–	–	–
CC(C)(C)C(=O)NCCN1CCN(c2ncnc3cc(C(N)=O)oc23)CC1 [Compound 97]	< 1 µM	< 1 µM	< 1 µM	–	–	–	–	–	–
NCCN1CCN(c2ncnc3cc(C(N)=O)oc23)CC1 [Compound 96]	> 10 µM	1 to 10 µM	1 to 10 µM	–	–	–	–	–	–
Cc1nc(N2CCN(CCNC(=O)C(C)(C)C)CC2)c2sc(C(N)=O)cc2n1 [Compound 156]	1 to 10 µM	1 to 10 µM	< 1 µM	–	–	–	–	–	–
CC(C1CCN(c2ncnc3cc(C(N)=O)sc23)CC1)N1CCCC1 (stereo not drawn) [Compound 183]	< 1 µM	< 1 µM	< 1 µM	–	–	–	–	–	–
NCCNC(=O)c1cccc(C(=O)NCCN2CCN(c3ncnc4ccsc34)CC2)c1 [Compound 191]	> 10 µM	> 10 µM	> 10 µM	–	–	–	–	–	–
NC(=O)c1cc2ncnc(N3CCC(CCN4CCCC4)CC3)c2o1 [Compound 87]	1 to 10 µM	< 1 µM	< 1 µM	–	–	–	–	–	–
CC(C)(C)C(=O)NCCN1CCN(c2nccc3cc(C(N)=O)sc23)CC1 [Compound 179]	> 10 µM	> 10 µM	1 to 10 µM	–	–	–	–	–	–
NC(=O)c1cc2ncnc(N3CCN(CCNC(=O)C4CCCC4)CC3)c2s1 [Compound 63]	< 1 µM	< 1 µM	< 1 µM	–	–	–	–	–	–
